Reference: ChEMBL document CHEMBL2311251, “Synthesis and structure-activity relationship of piperidine-derived non-urea soluble epoxide hydrolase inhibitors” (Bioorg Med Chem Lett, 2013)

Molecular target: T1, Bifunctional epoxide hydrolase 2 (Homo sapiens, UniProt P34913)
T1 sequence (P34913 whole entry): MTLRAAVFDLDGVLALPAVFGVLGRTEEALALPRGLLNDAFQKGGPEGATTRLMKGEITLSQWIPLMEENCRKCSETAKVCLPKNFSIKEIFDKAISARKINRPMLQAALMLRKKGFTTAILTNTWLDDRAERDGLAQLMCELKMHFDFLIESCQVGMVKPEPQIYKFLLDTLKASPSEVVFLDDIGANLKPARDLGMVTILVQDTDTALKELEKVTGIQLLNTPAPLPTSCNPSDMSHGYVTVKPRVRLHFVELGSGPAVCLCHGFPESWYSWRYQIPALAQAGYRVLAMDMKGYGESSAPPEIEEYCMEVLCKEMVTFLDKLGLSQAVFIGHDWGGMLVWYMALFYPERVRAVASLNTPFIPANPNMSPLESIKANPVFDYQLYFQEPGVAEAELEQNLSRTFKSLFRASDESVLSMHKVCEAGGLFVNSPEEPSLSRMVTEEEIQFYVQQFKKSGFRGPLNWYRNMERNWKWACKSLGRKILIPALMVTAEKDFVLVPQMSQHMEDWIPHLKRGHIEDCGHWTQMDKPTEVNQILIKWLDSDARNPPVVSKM
Experiment: Inhibition of human sEH assessed as 6-methoxy-2-naphthaldehyde generation preincubated for 10 before addition of cyano(2-methyl-oxynaphthalen-6-yl)methyl trans-(3-phenyloxyran-2-yl) methyl carbonate by fluorescence analysis
Conditions: not given

Structure (SMILES) | IC50
Cc1ccc(S(=O)(=O)N2CCC(C(=O)Nc3ccc4ncccc4c3)CC2)c(C)c1 | 13 nM
COC(=O)c1ccc2cc(NC(=O)C3CCN(S(=O)(=O)c4ccc(C)cc4C)CC3)ccc2c1 | 110 nM
Cc1ccc(S(=O)(=O)N2CCC(C(=O)Nc3ccc4c(c3)OCO4)CC2)c(C)c1 | 5.2 nM
Cc1ccc(S(=O)(=O)N2CCC(C(=O)NC3CCCc4ccccc43)CC2)c(C)c1 (stereo unspecified) | 41 nM
Cc1ccc(S(=O)(=O)N2CCC(C(=O)Nc3ccccc3)CC2)c(C)c1 | 6.9 nM
Cc1ccc(S(=O)(=O)N2CCC(C(=O)Nc3ccccc3Cl)CC2)c(C)c1 | 8.7 nM
Cc1ccc(S(=O)(=O)N2CCC(C(=O)Nc3ccccc3C)CC2)c(C)c1 | 20 nM
COc1ccc(NC(=O)C2CCN(S(=O)(=O)c3ccc(C)cc3C)CC2)cc1 | 25 nM
Cc1ccc(S(=O)(=O)N2CCC(C(=O)Nc3ccc(Oc4ccccc4)cc3)CC2)c(C)c1 | 20 nM
Cc1ccc(S(=O)(=O)N2CCC(C(=O)Nc3ccc(C(=O)O)cc3)CC2)c(C)c1 | 17 nM
Cc1ccc(S(=O)(=O)N2CCC(C(=O)Nc3ccc([N+](=O)[O-])cc3)CC2)c(C)c1 | 12 nM
Cc1ccc(S(=O)(=O)N2CCC(C(=O)Nc3ccc(N4CCCCC4)c(C(N)=O)c3)CC2)c(C)c1 | 43 nM
Cc1ccc(S(=O)(=O)N2CCC(C(=O)Nc3ccc(C(C)C)cc3)CC2)c(C)c1 | 6.7 nM
Cc1ccc(S(=O)(=O)N2CCC(C(=O)Nc3ccc(S(=O)(=O)C(F)(F)F)cc3)CC2)c(C)c1 | 1.6 nM
Cc1ccc(S(=O)(=O)N2CCC(C(=O)Nc3ccc(F)cc3)CC2)c(C)c1 | 290 nM
Cc1ccc(S(=O)(=O)N2CCC(C(=O)Nc3ccc(Br)cc3)CC2)c(C)c1 | 45 nM
Cc1ccc(S(=O)(=O)N2CCC(C(=O)Nc3ccc(Cl)c(C(F)(F)F)c3)CC2)c(C)c1 | 78 nM
Cc1ccc(S(=O)(=O)N2CCC(C(=O)Nc3ccc4ccccc4c3)CC2)c(C)c1 | 8.3 nM
Cc1ccc(S(=O)(=O)N2CCC(C(=O)Nc3cnc4ccccc4c3)CC2)c(C)c1 | 2.3 nM
Cc1ccc(S(=O)(=O)N2CCC(C(=O)Nc3cccc4cnccc34)CC2)c(C)c1 | 23 nM

Structure (SMILES) | IC50
Cc1ccc(S(=O)(=O)N2CCC(C(=O)Nc3ccc4cc(C(=O)O)ccc4c3)CC2)c(C)c1 | 0.6 nM
COc1cc2c(cc1NC(=O)C1CCN(S(=O)(=O)c3ccc(C)cc3C)CC1)OCO2 | 30000 nM
Cc1ccc(S(=O)(=O)N2CCC(C(=O)N[C@H]3C[C@@H]3c3ccccc3)CC2)c(C)c1 | 6900 nM
Cc1ccc(S(=O)(=O)N2CCC(C(=O)NC34CC5CC(CC(C5)C3)C4)CC2)c(C)c1 | 1.7 nM
Cc1ccc(S(=O)(=O)N2CCC(C(=O)Nc3ccccc3F)CC2)c(C)c1 | 1.1 nM
Cc1ccc(S(=O)(=O)N2CCC(C(=O)Nc3ccccc3Br)CC2)c(C)c1 | 0.6 nM
Cc1ccc(S(=O)(=O)N2CCC(C(=O)Nc3ccccc3O)CC2)c(C)c1 | 1.2 nM
Cc1ccc(S(=O)(=O)N2CCC(C(=O)Nc3ccc(O)cc3)CC2)c(C)c1 | 0.4 nM
COC(=O)c1ccc(NC(=O)C2CCN(S(=O)(=O)c3ccc(C)cc3C)CC2)cc1 | 8.5 nM
Cc1ccc(S(=O)(=O)N2CCC(C(=O)Nc3ccc(OC(F)(F)F)cc3)CC2)c(C)c1 | 23 nM
Cc1ccc(S(=O)(=O)N2CCC(C(=O)Nc3ccc(N4CCCCC4)cc3)CC2)c(C)c1 | 20 nM
Cc1ccc(S(=O)(=O)N2CCC(C(=O)Nc3ccc(N4CCOCC4)cc3)CC2)c(C)c1 | 250 nM
Cc1ccc(S(=O)(=O)N2CCC(C(=O)Nc3ccc(C(F)(F)F)cc3)CC2)c(C)c1 | 30 nM
Cc1ccc(S(=O)(=O)N2CCC(C(=O)Nc3cccc(C(F)(F)F)c3)CC2)c(C)c1 | 640 nM
Cc1ccc(S(=O)(=O)N2CCC(C(=O)Nc3ccc(Cl)cc3)CC2)c(C)c1 | 2200 nM
Cc1ccc(S(=O)(=O)N2CCC(C(=O)Nc3cc(Cl)cc(Cl)c3)CC2)c(C)c1 | 25 nM
Cc1ccc(S(=O)(=O)N2CCC(C(=O)Nc3ccc(Cl)c(Cl)c3)CC2)c(C)c1 | 55 nM
Cc1ccc(S(=O)(=O)N2CCC(C(=O)Nc3cccc4cccnc34)CC2)c(C)c1 | 6 nM
Cc1ccc(S(=O)(=O)N2CCC(C(=O)NCC(C)C)CC2)c(C)c1 | 18 nM

System: Liver microsomes
Experiment: Half life in human liver microsomes after 90 mins by LC/MS analysis
Assay type: ADME, Microsome
Conditions: 1.5 h

Structure (SMILES) | t1/2
Cc1ccc(S(=O)(=O)N2CCC(C(=O)Nc3ccc4c(c3)OCO4)CC2)c(C)c1 | 46 min
Cc1ccc(S(=O)(=O)N2CCC(C(=O)NC3CC3)CC2)c(C)c1 | 180 min
Cc1ccc(S(=O)(=O)N2CCC(C(=O)Nc3ccc(C(C)C)cc3)CC2)c(C)c1 | 25 min
Cc1ccc(S(=O)(=O)N2CCC(C(=O)Nc3ccc(S(=O)(=O)C(F)(F)F)cc3)CC2)c(C)c1 | 36 min
Cc1ccc(S(=O)(=O)N2CCC(C(=O)Nc3ccc4ccccc4c3)CC2)c(C)c1 | 8.7 min
Cc1ccc(S(=O)(=O)N2CCC(C(=O)Nc3cccc4cnccc34)CC2)c(C)c1 | 220 min
Cc1ccc(S(=O)(=O)N2CCC(C(=O)Nc3ccc4cc(C(=O)O)ccc4c3)CC2)c(C)c1 | 36 min
Cc1ccc(S(=O)(=O)N2CCC(C(=O)NC3CCCC3)CC2)c(C)c1 | 14 min
Cc1ccc(S(=O)(=O)N2CCC(C(=O)NC34CC5CC(CC(C5)C3)C4)CC2)c(C)c1 | 14 min
Cc1ccc(S(=O)(=O)N2CCC(C(=O)Nc3ccccc3O)CC2)c(C)c1 | 2.4 min
COC(=O)c1ccc(NC(=O)C2CCN(S(=O)(=O)c3ccc(C)cc3C)CC2)cc1 | 3.7 min
Cc1ccc(S(=O)(=O)N2CCC(C(=O)Nc3cccc4cccnc34)CC2)c(C)c1 | 11 min
